The target in test [1] is T1, 5-HT2B (Homo sapiens, UniProt P41595). Briefly: IP1 agonism (IP1 formation assay), Cerep, Eurofins. As to conditions: duplicate averages only. The arrangement: purchased Cerep, Eurofins (contract assay). It is filed as cell-based. An excerpt:
(§1) FIGS. 8A-B Comparison of 5-HT2A (a) and 5-HT2B (b) receptor in IP1 formation assay for selected compounds, performed at Cerep, Eurofins.
(§2) IP1 agonism summary for selected compounds (duplicate averages only), performed at Cerep, Eurofins.

The target of test [2] is T2, 5-HT2A (Homo sapiens, UniProt P28223). Briefly: IP1 agonism (IP1 formation assay), Cerep, Eurofins. The settings on record: duplicate averages only. The arrangement: purchased Cerep, Eurofins (contract assay). It is filed as cell-based.
T2 sequence (P28223 whole entry): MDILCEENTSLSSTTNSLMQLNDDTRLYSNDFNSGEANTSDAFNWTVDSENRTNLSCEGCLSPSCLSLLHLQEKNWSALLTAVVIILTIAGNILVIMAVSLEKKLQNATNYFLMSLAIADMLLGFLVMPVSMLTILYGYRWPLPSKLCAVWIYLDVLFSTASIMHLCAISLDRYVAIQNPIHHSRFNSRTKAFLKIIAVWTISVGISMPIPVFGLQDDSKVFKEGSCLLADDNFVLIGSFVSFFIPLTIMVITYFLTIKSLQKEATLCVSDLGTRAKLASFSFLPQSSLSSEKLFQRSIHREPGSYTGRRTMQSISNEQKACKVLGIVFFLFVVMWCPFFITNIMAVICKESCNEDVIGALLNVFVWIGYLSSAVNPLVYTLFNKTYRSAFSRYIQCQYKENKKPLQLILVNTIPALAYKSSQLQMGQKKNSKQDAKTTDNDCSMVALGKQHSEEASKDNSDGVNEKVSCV
From the text: as §1, §2

Test [3] has as its target T2, 5-HT2A. Briefly: G protein (Gq) dissociation BRET assay. It is filed as cell-based. The arrangement: host or cells: HEK293T (ATCC CRL-11268).
Test [4] deals with C57BL/6J mice. Briefly: Head twitch response (HTR) in mice. It is filed as in vivo, mouse. As to conditions: s.c. The method, then: All samples were prepared the same day testing was performed. Solids were weighed into small vials and dissolved in USP grade 0.85% saline with addition of 2 molar equivalents of glacial acetic acid. Sonication and gentle heating were applied until complete dissolution. The compounds were subsequently filtered through 0.45 μm filters into a new glass vial. All compounds were administered at a 1 mg/kg subcutaneous dose at a volume of 10 mL/kg of body weight. Volinanserin hydrochloride salt (MDL 100907) was purchased from Toronto Research Chemicals.
All experimental procedures involving animals were approved by an Institutional Animal Care and Use Committee (IACUC) and adhered to principles described in the National Institutes of Health Guide for the Care and Use of Laboratory Animals. The studies were conducted at AAALAC accredited facilities. Animals received regular veterinary care (weekly by institutional veterinarians) including daily health monitoring (by experimenters) of the animals (observing home cage behaviors, nesting, and body weight). All procedures were designed to minimize any stress/distress. Healthy adult male mice C57BL/6J (8-12 weeks, 26-33 g) were purchased from the Jackson Laboratory (Bar Harbor, ME) and housed 5 mice per cage with food and water available ad libitum. Mice were maintained on a 12-h light/dark cycle (lights on 7:00-19:00) and all testing was done in the light cycle. Temperature was kept constant at 22±2° C., and relative humidity was maintained at 50±5%
The head-twitch response evaluation was performed by a trained observer who was blinded to both drug and dose. Mice were moved to the testing room 30 min before the experiment to allow for acclimation. The body weight of each mouse was recorded. Mice were administered either a 1, 3, 10, or 30 mg/kg s.c. dose of compound solution (volume of injection 260-330 μL based on body weight). […] The total number of head-twitches over the 15 minute period were recorded. Five mice were used per dose.
DOI was tested at the doses of 0.3, 1, 3, and 10 mg/kg (s.c., 5 mice per dose) and testing began immediately after administration of the compound. Ariadne was tested at the doses of 1, 3, 10, and 30 mg/kg (s.c., 5 mice per dose) and there was a 10 min interval between treatment and testing.

Test [5] has as its system C57BL/6J mice. The test can be described thus: Open field locomotion in mice. The test is classed as in vivo, mouse.
The next test deals with humans. The settings on record: per oral administration; cited from earlier work.
For the next test, the target named is T3, 5-HT2C receptor (Homo sapiens, UniProt P28335).
T3 sequence (P28335 33-458): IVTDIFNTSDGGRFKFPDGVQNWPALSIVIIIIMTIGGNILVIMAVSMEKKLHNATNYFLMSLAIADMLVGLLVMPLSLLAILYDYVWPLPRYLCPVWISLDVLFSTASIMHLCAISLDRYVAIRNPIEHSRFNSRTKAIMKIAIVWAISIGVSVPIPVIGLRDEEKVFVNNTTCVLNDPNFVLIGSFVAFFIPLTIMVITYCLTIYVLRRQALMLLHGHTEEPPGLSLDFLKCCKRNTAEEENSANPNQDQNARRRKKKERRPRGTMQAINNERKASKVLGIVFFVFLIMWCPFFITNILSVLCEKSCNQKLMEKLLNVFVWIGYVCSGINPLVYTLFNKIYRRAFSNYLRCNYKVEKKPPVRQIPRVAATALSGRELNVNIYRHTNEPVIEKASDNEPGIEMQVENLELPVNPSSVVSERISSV
Briefly: G protein (Gq) dissociation BRET assay. As to conditions: read-out: Emax/Gq.

Test [6] deals with T1, 5-HT2B. Briefly: G protein (Gq) dissociation BRET assay.
Experimental: (§3) All BRET assays were conducted using BRET2 in HEK293T cells (ATCC CRL-11268; mycoplasma-free), which were subcultured in high-glucose DMEM (VWR) supplemented with 10% FBS (Life Technologies).
(§4) Constructs in G protein-dissociation BRET assays were derived from the codon-optimized Tango pcDNA3.1 library (Addgene) with V2tail/TEV/tTA encoding regions deleted to yield “de-Tango” constructs. […] All Gα-Rluc8, Beta, and GFP2-γ constructs were derived from the TRUPATH pcDNA5/FRT/TO library (Addgene).
(§5) Approximately 48 hours before assays, cells were transfected using a reverse transfection method and plated in 1% dFBS at an approximate density of 15,000 cells per well into poly-L-lysine-coated 384-well white assay plates (Grenier Bio-One). For G protein-dissociation assays, cells were transfected in a 1:1:1:1 ratio of receptor: Gα-Rluc8: Beta: GFP2-γ constructs. […] All transfections were prepared in Opti-MEM (Invitrogen) and used a 3:1 ratio of TransIT-2020 (Mirus) uL:ug total DNA.
(§6) On the day of the assay, plates were decanted and 20 uL of drug buffer per well (1×HBSS, 20 mM HEPES, pH 7.4) was added using a Multidrop (ThermoFisher Scientific), and plates were allowed to equilibrate at 37° C. in a humidified incubator before receiving drug stimulation. Drug dilutions of all compounds were performed in McCorvy buffer (1×HBSS, 20 mM HEPES, pH 7.4, supplemented with 0.3% BSA fatty acid free (GoldBio), and 0.03% ascorbic acid). […] Next, plates were incubated at 37° C. in a humidified incubator for 60 minutes or specified time point. Before reading, addition of coelenterazine 400a (5 uM final concentration; Nanolight Technology) was performed by the [sequence]. Immediately after, plates were read at 400 nm Rluc and fluorescent GFP2 emission at 510 nm for BRET2 at 0.8 second per well using a PheraStarFSX (BMB Lab Tech).
(§7) The BRET ratios of 510/400 luminescence were calculated per well and were plotted as a function of drug concentration using Graphpad Prism 5 or 9 (Graphpad Software Inc., San Diego, CA). Data were normalized to % positive control stimulation and analyzed using nonlinear regression “log(agonist) vs. response” to yield Emax and EC50 parameter estimates.
In test [7] the target is T2, 5-HT2A. The test can be described thus: Radioligand displacement assay. The test is classed as binding.
Experimental: Therefore, an orthogonal assay measuring calcium flux was also performed for the 5-HT2 receptors (Klein et al., 2020).
Setting [8] is: EC50 (5-HT2B) (M), Table 7, IP1 agonism.
Setting [9] is: EC50 (5-HT2A) (M), Table 7, IP1 agonism.

Here are results for 21 compounds from patent publication US20260021061A1, “ARIADNE AND ANALOGS FOR THE TREATMENT OF NEUROLOGICAL AND NEUROMUSCLAR DISORDERS” (priority 2022, published 2026).

Structures are written as SMILES. Structures can show the parent of a compound that is named as a salt. Where two headings read alike, the source gives them in different places.

T1 sequence (P41595 whole entry): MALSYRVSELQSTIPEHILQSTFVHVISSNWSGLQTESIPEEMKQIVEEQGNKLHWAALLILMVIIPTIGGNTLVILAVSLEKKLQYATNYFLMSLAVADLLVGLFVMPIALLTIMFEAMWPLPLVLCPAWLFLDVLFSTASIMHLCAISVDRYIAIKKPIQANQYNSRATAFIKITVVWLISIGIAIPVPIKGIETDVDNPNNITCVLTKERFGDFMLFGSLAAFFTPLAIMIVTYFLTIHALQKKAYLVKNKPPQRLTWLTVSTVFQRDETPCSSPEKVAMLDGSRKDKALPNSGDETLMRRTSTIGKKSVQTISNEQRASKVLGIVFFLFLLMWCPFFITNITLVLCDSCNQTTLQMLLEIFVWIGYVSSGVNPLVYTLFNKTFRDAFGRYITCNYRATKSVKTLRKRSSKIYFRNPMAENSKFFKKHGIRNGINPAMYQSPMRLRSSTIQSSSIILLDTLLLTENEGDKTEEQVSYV
Experimental for 5-HT2C receptor: as §3, §4, §5, §6, §7

For the compound `CCC(N)Cc1cc(OC)c(Br)cc1OC` (centres unmarked) [Compound 31, 1-(4-bromo-2,5-dimethoxyphenyl)butan-2-amine], the EC50 on 5-HT2B [1] (5-HT2b (IP1 agonism), Table 2) stood at 5.5e-06 M; at 5-HT2A [2] (5-HT2a (IP1 agonism), Table 2) it was 9e-08 M.

Regarding `CCC(N)Cc1cc(OC)c(I)cc1OC` (centres unmarked) [Compound 34, 1-(4-iodo-2,5-dimethoxyphenyl)butan-2-amine], the EC50 amounted to 16 nM on 5-HT2A [3] (EC50 (EC50/Gq), Gq dissociation, Gq dissociation BRET); 1.8e-05 M on 5-HT2B [1] (5-HT2b (IP1 agonism), Table 2); 9.7e-06 M on 5-HT2A [2] (5-HT2a (IP1 agonism), Table 2). In addition, the “increase in Gq potency compared to Ariadne” value on 5-HT2A [3] (EC50/Gq comparison) is given as above 10 fold.

For the compound `CCC(N)Cc1cc(OC)c(C(F)(F)CC)cc1OC` (centres unmarked) [Compound 53, 1-(4-(1,1-difluoropropyl)-2,5-dimethoxyphenyl)butan-2-amine], the EC50 at 5-HT2B [1] (setting [8]) came to 1.9e-07 M; at 5-HT2A [2] (setting [9]) it was 5.7e-08 M.

Take `CCc1cc(OC)c(CC(N)CC)cc1OC` (centres unmarked) [Compound 35, 1-(4-ethyl-2,5-dimethoxyphenyl)butan-2-amine]: the EC50 at 5-HT2B [1] (5-HT2b (IP1 agonism), Table 2) stood at 5.7e-07 M; at 5-HT2A [2] (5-HT2a (IP1 agonism), Table 2), 1.9e-06 M.

Regarding `CCC(N)Cc1cc(OC)c(SC)cc1OC` (centres unmarked) [Compound 28, 1-(2,5-dimethoxy-4-(methylthio)phenyl)butan-2-amine], the EC50 on 5-HT2B [1] (5-HT2b (IP1 agonism), Table 2) was found to be 6.6e-08 M; at 5-HT2A [2] (5-HT2a (IP1 agonism), Table 2) it was 1.6e-07 M.

Turning to `CCCC(N)Cc1cc(OC)c(C)cc1OC` (centres unmarked) [Compound 39, 1-(2,5-dimethoxy-4-methylphenyl) pentan-2-amine], in the test on C57BL/6J mice [4], the HTR response result is “indistinguishable from vehicle”. The compound further yielded an EC50 at 5-HT2B [1] (5-HT2b (IP1 agonism), Table 2) of 2.3e-05 M.

As for `CCOc1cc(CC(N)CC)c(OC)cc1C(F)(F)F` (centres unmarked) [Compound 36, 1-(5-ethoxy-2-methoxy-4-(trifluoromethyl)phenyl)butan-2-amine], the EC50 was 9.5e-07 M on 5-HT2B [1] (5-HT2b (IP1 agonism), Table 2) and 2.8e-07 M on 5-HT2A [2] (5-HT2a (IP1 agonism), Table 2).

As to `CCC(N)Cc1cc(OC)c(C(C)(F)F)cc1OC` (centres unmarked) [Compound 50, 1-(4-(1,1-difluoroethyl)-2,5-dimethoxyphenyl)butan-2-amine], the EC50 on 5-HT2B [1] (setting [8]) turned out to be 1.1e-07 M; on 5-HT2A [2] (setting [9]), 2.5e-08 M.

On 5-HT2A [2] (setting [9]), `CCC(N)Cc1cc(OC)c(CC(C)(F)F)cc1OC` (centres unmarked) [Compound 58, 1-(4-(2,2-difluoropropyl)-2,5-dimethoxyphenyl)butan-2-amine] yielded an EC50 of 4.3e-06 M.

As to `CCCc1cc(OC)c(CC(C)N)cc1OC` (racemic) [Compound 44, 1-(2,5-dimethoxy-4-propylphenyl) propan-2-amine, reference compound], in the test on C57BL/6J mice [4], the HTR response entry was “robust dose-dependent HTR response”, the “dose of maximum (peak) HTR” value is listed as 1 mg/kg and the “time to maximum HTR frequency post-drug administration” value amounted to 10 min. Besides, the “time in the center of the arena” value in the test on C57BL/6J mice [5] (open field) was “trend for spending less time in the center”. Moreover, the effects on locomotion result in the test on C57BL/6J mice [5] (s.c., trending toward increased locomotion at HTR peak dose (1 mg/kg)) is given as “minor to no effects on locomotion”.

Take `COc1cc(CC(N)C2CC2)c(OC)cc1C` (centres unmarked) [Compound 38, 1-cyclopropyl-2-(2,5-dimethoxy-4-methylphenyl)ethan-1-amine]: the EC50 amounted to 2.1e-05 M on 5-HT2B [1] (Table 2, read-out: 5-HT2b (IP1 agonism)) and 9.7e-06 M at 5-HT2A [2] (Table 2, read-out: 5-HT2a (IP1 agonism)).

Regarding `CCSc1cc(OC)c(CC(N)CC)cc1OC` (centres unmarked) [Compound 27, 1-(4-(ethylthio)-2,5-dimethoxyphenyl)butan-2-amine], the EC50 on 5-HT2B [1] (5-HT2b (IP1 agonism), Table 2) stood at 6.3e-07 M; on 5-HT2A [2] (5-HT2a (IP1 agonism), Table 2) it was 5.3e-08 M.

Take `CCC(N)Cc1cc(OC)c(S(C)(=O)=O)cc1OC` (centres unmarked) [Compound 33, 1-(2,5-dimethoxy-4-(methylsulfonyl)phenyl)butan-2-amine trifluoroacetate]: the EC50 at 5-HT2B [1] (5-HT2b (IP1 agonism), Table 2) was found to be 2.5e-05 M; on 5-HT2A [2] (5-HT2a (IP1 agonism), Table 2) it was 3.4e-06 M.

As to `COc1cc(CC(C)N)c(OC)cc1C` (centres unmarked) [DOM, 2,5 Dimethoxy-4-methylamphetamine, reference compound], the “potency in humans relative to mescaline” value with humans is “approximately 100 times”.

The compound `CCC(N)Cc1c(OC)cc(C)cc1OC` (centres unmarked) [Compound 40, 1-(2,6-dimethoxy-4-methylphenyl)butan-2-amine] had an EC50 on 5-HT2A [2] (5-HT2a (IP1 agonism), Table 2) of 1e-05 M.

In the case of `CCC(N)Cc1cc(OC)c(COC)cc1OC` (centres unmarked) [Compound 37, 1-(2,5-dimethoxy-4-(methoxymethyl)phenyl)butan-2-amine], the HTR response result in the test with C57BL/6J mice [4] is recorded as “only residual HTR”. The Emax on 5-HT2C receptor amounted to 82%; on 5-HT2A [3] (Gq dissociation BRET, normalized to 5-HT, read-out: Emax (Emax/Gq) relative to 5-HT), 78%; at 5-HT2B [6] (read-out: Emax/Gq) it was 43%. Further, the “less potent at 5-HT2A compared to Ariadne” value on 5-HT2A [3] (Gq dissociation) is on record as “approximately 2 fold”. The “potency at 5-HT2B compared to Ariadne” value at 5-HT2B [6] (Gq dissociation) is recorded as “twice as potent”.

Compound `CCC(N)Cc1cc(OC)c(C2CC2)cc1OC` (centres unmarked) [Compound 30, 1-(4-cyclopropyl-2,5-dimethoxyphenyl)butan-2-amine] returned an EC50 at 5-HT2A [2] (5-HT2a (IP1 agonism), Table 2) of 3.7e-06 M.

In the case of `CCC(N)Cc1cc(OC)c(C#N)cc1OC` (centres unmarked) [Compound 4, 4-(2-aminobutyl)-2,5-dimethoxybenzonitrile trifluoroacetate], the EC50 on 5-HT2A [2] (5-HT2a (IP1 agonism), Table 2) turned out to be 1.1e-05 M.

In the case of `CC[C@H](N)Cc1cc(OC)c(C)cc1OC` [(S)-Ariadne], affinity at 5-HT2A [7] was put at a Ki of 220 nM.

Regarding `CCCc1cc(OC)c(CC(N)CC)cc1OC` (centres unmarked) [Compound 42, 1-(2,5-dimethoxy-4-propylphenyl)butan-2-amine], the EC50 at 5-HT2A [2] (5-HT2a (IP1 agonism), Table 2) amounted to 2.1e-07 M.

As for `CCC(N)Cc1cc(OC)c(Cl)cc1OC` (centres unmarked) [Compound 41, 1-(4-chloro-2,5-dimethoxyphenyl)butan-2-amine], the EC50 on 5-HT2B [1] (5-HT2b (IP1 agonism), Table 2) was 1.4e-05 M; on 5-HT2A [2] (5-HT2a (IP1 agonism), Table 2), 1.9e-07 M.
